Source: ChEMBL document CHEMBL5380836, “Design and Structural Optimization of Methionine Adenosyltransferase 2A (MAT2A) Inhibitors with High In Vivo Potency and Oral Bioavailability” (J Med Chem, 2023)
One block for each compound: values may come before it. Calls of active or inactive are those of the source. The rule behind the calls is not given here.

How the values were obtained:
[1] = biological target: S-adenosylmethionine synthase isoform type-2 (Homo sapiens, UniProt P31153); test: Inhibition of recombinant MAT2A (unknown origin) expressed in baculovirus infected Sf9 insect cells using L-methionine as substrate preincubated for 15 mins followed by substrate addition measured after 60 mins by Kinase-Glo Luminescent assay
[2] = system: HCT-116; test: Antiproliferative activity against human HCT-116 cells expressing MTAP-/- assessed as inhibition of cell proliferation incubated for 4 days by fluorescence based assay; type: functional; settings: HCT-116, 96 h
[3] = Clearance in ICR mouse at 1 mg/kg, iv measured for 0.083 to 24 hrs by LC-MS analysis; type: ADME, organism-based; settings: in vivo, time 0.083-24 hrs
[4] = Half life in ICR mouse at 1 mg/kg, iv measured for 0.083 to 24 hrs by LC-MS analysis; type: ADME, organism-based; settings: in vivo, time 0.083-24 hrs
[5] = AUC in ICR mouse at 1 mg/kg, iv measured for 0.083 to 24 hrs by LC-MS analysis; type: ADME, organism-based; set-up: time upper 24 hrs, time lower 0.083 hrs, dose 1 mg/kg, route iv; settings: in vivo
[6] = Volume of distribution at steady state in ICR mouse at 1 mg/kg, iv measured for 0.083 to 24 hrs by LC-MS analysis; type: ADME, organism-based; settings: in vivo, time 0.083-24 hrs, read-out: Vdss
[7] = Tmax in ICR mouse at 10 mg/kg, po via gavage measured for 0.083 to 24 hrs by LC-MS analysis; type: ADME, organism-based; settings: in vivo, time 0.083-24 hrs
[8] = Half life in ICR mouse at 10 mg/kg, po via gavage measured for 0.083 to 24 hrs by LC-MS analysis; type: ADME, organism-based; settings: in vivo, time 0.083-24 hrs
[9] = Cmax in ICR mouse at 10 mg/kg, po via gavage measured for 0.083 to 24 hrs by LC-MS analysis; type: ADME, organism-based; set-up: time upper 24 hrs, dose 10 mg/kg, time lower 0.083 hrs, route po; settings: in vivo
[10] = AUC in ICR mouse at 10 mg/kg, po via gavage measured for 0.083 to 24 hrs by LC-MS analysis; type: ADME, organism-based; set-up: dose 10 mg/kg, time upper 24 hrs, time lower 0.083 hrs, route po; settings: in vivo
[11] = Oral bioavailability in ICR mouse at 10 mg/kg administered via gavage measured for 0.083 to 24 hrs by LC-MS analysis; type: ADME, organism-based; settings: in vivo, time 0.083-24 hrs
[12] = system: HCT-116; test: Antiproliferative activity against human HCT-116 cells assessed as inhibition of cell proliferation incubated for 4 days by fluorescence based assay; type: functional; settings: HCT-116, 96 h
[13] = MRT in ICR mouse at 10 mg/kg, po via gavage measured for 0.083 to 24 hrs by LC-MS analysis; type: ADME, organism-based; settings: in vivo, time 0.083-24 hrs
[14] = system: HCT-116; test: Antitumor activity against human HCT-116 cells expressing MTAP-/- xenografted in BALB/c mouse assessed as decrease in tumor volume at 50 mg/kg, po qd measured after 6 days; type: functional, organism-based; settings: time 6.0 day
[15] = system: HCT-116; test: Antitumor activity against human HCT-116 cells expressing MTAP-/- xenografted in BALB/c mouse assessed as tumor regression at 50 mg/kg, po qd measured after 18 days relative to control; type: functional; settings: time 18 day
[16] = Toxicity in BALB/c mouse xenografted with human HCT-116 cells expressing MTAP-/- assessed as drug tolerance at 50 mg/kg, po qd measured for 18 days; type: organism-based; settings: in vivo, 432 h, time 18 day
[17] = Toxicity in BALB/c mouse xenografted with human HCT-116 cells expressing MTAP-/- assessed as body weight loss at 50 mg/kg, po qd measured for 18 days relative to control; type: organism-based; settings: in vivo, 432 h, time 18 day
[18] = Apparent permeability of the compound across apical to basolateral side in MDCKII-MDR1 cells at 2 uM incubated for 2.5 hrs by LC-MS/MS analysis; type: ADME, cell-based, Canis lupus familiaris; settings: dog, MDCK-MDR1
[19] = Intrinsic clearance in human liver microsomes at […] incubated for 5 to 60 mins in presence of NADPH by LC-MS analysis; type: ADME, Microsome; settings: time 5-60 min
[20] = Efflux ratio of apparent permeability from basolateral to apical side over apical to basolateral side in MDCKII-MDR1 cells at 2 uM incubated for 2.5 hrs by LC-MS/MS analysis; type: ADME, cell-based, Canis lupus familiaris; settings: dog, MDCK-MDR1
[21] = biological target: T1, Cytochrome P450 1A2 (Homo sapiens, UniProt P05177); test: Inhibition of CYP1A2 in human liver microsomes using phenacetin as substrate preincubated for 10 mins followed by substrate addition measured after 10 mins in presence of NADPH by LC-MS analysis; type: ADME, Microsome
T1 sequence (P05177 whole entry): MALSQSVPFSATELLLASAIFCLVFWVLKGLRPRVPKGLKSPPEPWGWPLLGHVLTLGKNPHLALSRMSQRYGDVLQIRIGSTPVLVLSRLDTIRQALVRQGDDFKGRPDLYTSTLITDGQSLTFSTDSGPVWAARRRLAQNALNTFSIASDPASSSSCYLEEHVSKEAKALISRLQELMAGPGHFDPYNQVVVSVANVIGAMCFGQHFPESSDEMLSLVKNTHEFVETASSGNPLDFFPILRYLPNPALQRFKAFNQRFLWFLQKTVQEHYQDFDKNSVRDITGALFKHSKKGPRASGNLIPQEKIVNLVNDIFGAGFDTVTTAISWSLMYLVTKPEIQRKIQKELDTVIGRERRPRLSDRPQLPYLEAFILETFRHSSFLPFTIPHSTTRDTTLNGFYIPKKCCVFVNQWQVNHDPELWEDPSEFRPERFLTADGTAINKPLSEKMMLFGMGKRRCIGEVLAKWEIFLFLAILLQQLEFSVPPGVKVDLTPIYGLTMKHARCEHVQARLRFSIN

[22] = biological target: Cytochrome P450 2C9 (Homo sapiens, UniProt P11712); test: Inhibition of CYP2C9 in human liver microsomes using diclofenac as substrate preincubated for 10 mins followed by substrate addition measured after 10 mins in presence of NADPH by LC-MS analysis; type: ADME, Microsome
[23] = biological target: Cytochrome P450 2C19 (Homo sapiens, UniProt P33261); test: Inhibition of CYP2C19 in human liver microsomes using S-mephenytoin as substrate preincubated for 10 mins followed by substrate addition measured after 10 mins in presence of NADPH by LC-MS analysis; type: ADME, Microsome
[24] = biological target: Cytochrome P450 2D6 (Homo sapiens, UniProt P10635); test: Inhibition of CYP2D6 in human liver microsomes using dextromethorphan as substrate preincubated for 10 mins followed by substrate addition measured after 10 mins in presence of NADPH by LC-MS analysis; type: ADME, Microsome
[25] = biological target: Cytochrome P450 3A4 (Homo sapiens, UniProt P08684); test: Inhibition of CYP3A4 in human liver microsomes using midazolam as substrate preincubated for 10 mins followed by substrate addition measured after 10 mins in presence of NADPH by LC-MS analysis; type: ADME, Microsome
[26] = biological target: UDP-glucuronosyltransferases (UGTs); test: Inhibition of UGT (unknown origin) preincubated for 10 mins followed by substrates addition measured after 10 mins by LC-MS analysis; type: ADME, protein assay, Homo sapiens
[27] = biological target: Voltage-gated inwardly rectifying potassium channel KCNH2 (Homo sapiens, UniProt Q12809); test: Inhibition of hERG potassium ion channel expressed in CHO cells at -80 mV holding potential treated for 2.5 mins by Q patch-clamp method; type: toxicity, cell-based
Sequence of Voltage-gated inwardly rectifying potassium channel KCNH2 (Q12809 whole entry): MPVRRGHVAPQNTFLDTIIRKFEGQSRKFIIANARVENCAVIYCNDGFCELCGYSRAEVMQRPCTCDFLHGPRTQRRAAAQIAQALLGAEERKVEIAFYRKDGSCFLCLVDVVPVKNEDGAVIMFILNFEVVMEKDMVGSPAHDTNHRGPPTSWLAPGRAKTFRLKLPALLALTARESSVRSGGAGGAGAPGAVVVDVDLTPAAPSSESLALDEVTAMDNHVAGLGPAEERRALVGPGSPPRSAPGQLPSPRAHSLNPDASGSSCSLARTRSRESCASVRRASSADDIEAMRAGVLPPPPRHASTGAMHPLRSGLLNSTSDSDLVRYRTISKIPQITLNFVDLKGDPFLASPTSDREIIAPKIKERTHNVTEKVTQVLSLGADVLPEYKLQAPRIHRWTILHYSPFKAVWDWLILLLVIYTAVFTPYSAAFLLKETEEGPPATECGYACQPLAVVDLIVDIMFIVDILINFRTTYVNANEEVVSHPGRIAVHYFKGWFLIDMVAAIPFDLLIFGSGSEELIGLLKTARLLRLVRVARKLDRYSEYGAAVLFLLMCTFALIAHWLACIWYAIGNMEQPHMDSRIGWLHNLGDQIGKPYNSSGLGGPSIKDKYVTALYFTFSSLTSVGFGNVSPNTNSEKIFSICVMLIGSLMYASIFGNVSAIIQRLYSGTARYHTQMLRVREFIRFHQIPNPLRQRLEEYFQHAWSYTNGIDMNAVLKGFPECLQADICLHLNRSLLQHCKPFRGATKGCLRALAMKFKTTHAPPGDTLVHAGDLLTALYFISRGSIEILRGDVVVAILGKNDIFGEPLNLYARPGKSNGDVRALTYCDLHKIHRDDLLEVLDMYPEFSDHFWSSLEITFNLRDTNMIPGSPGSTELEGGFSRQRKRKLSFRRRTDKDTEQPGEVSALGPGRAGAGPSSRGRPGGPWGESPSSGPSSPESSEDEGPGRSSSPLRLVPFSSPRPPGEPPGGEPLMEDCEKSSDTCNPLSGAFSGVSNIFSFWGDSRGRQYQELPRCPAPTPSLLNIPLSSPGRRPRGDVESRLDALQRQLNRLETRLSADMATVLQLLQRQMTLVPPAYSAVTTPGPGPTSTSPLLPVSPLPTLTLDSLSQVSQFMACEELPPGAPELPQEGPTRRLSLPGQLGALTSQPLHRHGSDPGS

Sequence of S-adenosylmethionine synthase isoform type-2 (P31153 whole entry, canonical isoform): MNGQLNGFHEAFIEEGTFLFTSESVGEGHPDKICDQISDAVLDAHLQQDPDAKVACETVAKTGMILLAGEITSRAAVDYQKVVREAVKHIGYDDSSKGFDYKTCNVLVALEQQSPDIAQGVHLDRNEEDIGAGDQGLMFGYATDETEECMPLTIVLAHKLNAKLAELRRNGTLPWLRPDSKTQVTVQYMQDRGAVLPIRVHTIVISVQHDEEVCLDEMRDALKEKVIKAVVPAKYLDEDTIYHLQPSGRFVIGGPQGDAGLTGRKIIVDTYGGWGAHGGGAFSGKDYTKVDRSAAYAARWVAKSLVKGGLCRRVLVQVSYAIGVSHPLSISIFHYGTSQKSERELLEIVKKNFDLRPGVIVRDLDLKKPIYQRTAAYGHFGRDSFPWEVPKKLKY
Sequence of Cytochrome P450 2C9 (P11712 whole entry): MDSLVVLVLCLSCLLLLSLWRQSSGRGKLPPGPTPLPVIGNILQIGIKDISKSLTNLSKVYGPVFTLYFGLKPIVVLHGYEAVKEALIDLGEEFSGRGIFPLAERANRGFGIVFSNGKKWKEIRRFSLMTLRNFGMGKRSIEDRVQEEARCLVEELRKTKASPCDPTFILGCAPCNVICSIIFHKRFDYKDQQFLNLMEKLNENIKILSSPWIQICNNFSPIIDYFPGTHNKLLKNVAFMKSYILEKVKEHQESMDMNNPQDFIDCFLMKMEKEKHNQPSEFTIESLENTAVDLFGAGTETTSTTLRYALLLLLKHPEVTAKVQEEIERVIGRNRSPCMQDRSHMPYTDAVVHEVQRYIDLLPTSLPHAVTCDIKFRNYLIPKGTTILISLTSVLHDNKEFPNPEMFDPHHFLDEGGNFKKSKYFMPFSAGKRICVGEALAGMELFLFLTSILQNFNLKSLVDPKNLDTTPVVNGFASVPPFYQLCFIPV
Sequence of Cytochrome P450 2D6 (P10635 whole entry): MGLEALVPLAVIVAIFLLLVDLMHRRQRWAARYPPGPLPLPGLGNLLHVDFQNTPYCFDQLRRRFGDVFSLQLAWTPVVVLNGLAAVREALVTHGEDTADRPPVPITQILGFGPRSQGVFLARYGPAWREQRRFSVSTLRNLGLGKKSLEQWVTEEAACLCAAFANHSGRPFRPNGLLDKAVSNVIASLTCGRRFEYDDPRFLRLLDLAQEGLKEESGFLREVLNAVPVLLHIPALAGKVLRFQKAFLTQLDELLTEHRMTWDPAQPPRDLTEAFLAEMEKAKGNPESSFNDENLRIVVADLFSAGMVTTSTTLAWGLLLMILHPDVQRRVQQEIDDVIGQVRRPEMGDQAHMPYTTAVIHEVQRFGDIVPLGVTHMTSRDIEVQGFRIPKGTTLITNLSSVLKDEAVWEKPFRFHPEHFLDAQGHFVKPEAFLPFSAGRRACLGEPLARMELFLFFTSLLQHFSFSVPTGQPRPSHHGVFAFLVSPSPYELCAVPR
Sequence of Cytochrome P450 3A4 (P08684 whole entry): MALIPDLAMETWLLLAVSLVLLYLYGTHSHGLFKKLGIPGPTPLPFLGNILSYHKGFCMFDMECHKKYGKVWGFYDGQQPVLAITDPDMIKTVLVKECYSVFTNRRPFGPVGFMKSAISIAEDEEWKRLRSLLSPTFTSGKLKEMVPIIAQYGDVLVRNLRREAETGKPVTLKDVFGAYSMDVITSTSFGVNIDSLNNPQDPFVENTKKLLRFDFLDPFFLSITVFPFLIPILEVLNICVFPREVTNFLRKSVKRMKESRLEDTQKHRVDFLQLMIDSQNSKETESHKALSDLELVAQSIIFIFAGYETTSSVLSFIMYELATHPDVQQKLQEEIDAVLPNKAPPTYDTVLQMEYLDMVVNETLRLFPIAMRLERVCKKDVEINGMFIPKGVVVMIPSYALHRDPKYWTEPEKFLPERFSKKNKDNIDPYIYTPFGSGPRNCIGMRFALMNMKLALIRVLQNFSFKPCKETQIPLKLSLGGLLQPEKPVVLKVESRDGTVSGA
Sequence of Cytochrome P450 2C19 (P33261 whole entry): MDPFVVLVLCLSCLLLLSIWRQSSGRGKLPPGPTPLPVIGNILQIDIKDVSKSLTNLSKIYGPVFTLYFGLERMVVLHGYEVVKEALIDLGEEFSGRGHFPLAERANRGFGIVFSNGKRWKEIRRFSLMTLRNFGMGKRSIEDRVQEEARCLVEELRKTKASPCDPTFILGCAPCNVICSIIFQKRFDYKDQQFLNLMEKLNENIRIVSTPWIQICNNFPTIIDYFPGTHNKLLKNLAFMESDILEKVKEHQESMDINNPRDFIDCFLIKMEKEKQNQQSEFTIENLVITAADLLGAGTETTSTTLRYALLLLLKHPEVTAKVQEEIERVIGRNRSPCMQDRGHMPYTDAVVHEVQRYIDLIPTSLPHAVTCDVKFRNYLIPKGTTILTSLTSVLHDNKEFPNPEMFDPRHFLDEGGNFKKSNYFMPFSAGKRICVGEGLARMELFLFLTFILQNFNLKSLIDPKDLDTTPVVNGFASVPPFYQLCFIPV

- IC50 [1]: 18 nM
- IC50 [2]: 52 nM
- clearance [3]: 17.1 mL/min/kg
- half-life [4]: 2.4 h
- AUC [5]: 990 ng·h/mL
- Vd [6]: 2.18 L/kg
- Tmax [7]: 0.83 h
- half-life [8]: 3.3 h
- Cmax [9]: 2300 ng/mL
- AUC [10]: 11500 ng·h/mL
- bioavailability [11]: 116%
SMILES: CCOc1ncc2cc(-c3ccc4nc5n(c4c3)CCN(C)C5)c(=O)n(-c3ccc(OC(F)F)cc3)c2n1

- IC50 [1]: 14 nM
- IC50 [2]: 42 nM
- Tmax [7]: 0.33 h
- half-life [8]: 2.9 h
- Cmax [9]: 1050 ng/mL
- AUC [10]: 3200 ng·h/mL
SMILES: CCNc1ncc2cc(-c3ccc4nc5n(c4c3)CCN(C)C5)c(=O)n(-c3ccc(OC(F)F)cc3)c2n1

- IC50 [1]: > 1000 nM
- IC50 [2]: > 10000 nM
SMILES: CN1CCn2c(nc3ccc(-c4cc5cnc(N6CCCC6)nc5n(-c5ccc(OC(F)F)cc5)c4=O)cc32)C1

- IC50 [1]: 17 nM
- IC50 [2]: 50 nM
SMILES: CCOc1ncc2cc(-c3ccc4nc5n(c4c3)CCN(CCOC)C5)c(=O)n(-c3ccc(OC(F)F)cc3)c2n1

- IC50 [1]: 34 nM
- IC50 [2]: 166 nM
SMILES: CN1CCn2c(nc3ccc(-c4cc5cnc(NCC(F)(F)F)nc5n(-c5ccc(OC(F)F)cc5)c4=O)cc32)C1

- IC50 [1]: 20 nM
- IC50 [2]: 56 nM
SMILES: CCOc1ncc2cc(-c3ccc4nn5c(c4c3)CN(C)CC5)c(=O)n(-c3ccc(OC(F)F)cc3)c2n1

- IC50 [1]: 52 nM
- IC50 [2]: 118 nM
SMILES: CCOc1ncc2cc(-c3ccc4nc5n(c4c3)CCN(C(C)=O)C5)c(=O)n(-c3ccc(OC(F)F)cc3)c2n1

- IC50 [1]: 63 nM
- IC50 [2]: 315 nM
SMILES: CCOc1ccc2cc(-c3ccc4c(c3)C3(CC3)CO4)c(=O)n(-c3ccc(OC(F)F)cc3)c2c1

- IC50 [1]: 39 nM
- IC50 [2]: 387 nM
SMILES: CCOc1ncc2nc(-c3ccc4nn(C)cc4c3)c(=O)n(-c3ccc(OC(F)F)cc3)c2n1

- IC50 [1]: > 1000 nM
- IC50 [2]: > 10000 nM
SMILES: CCOc1ncc2cc(-c3ccc4c(c3)OCC3(CCN(C)CC3)O4)c(=O)n(-c3ccc(OC(F)F)cc3)c2n1

- IC50 [1]: 23 nM
- IC50 [2]: 67 nM
SMILES: CCOc1ncc2cc(-c3ccc4nc5n(c4c3)CCN(CC3COC3)C5)c(=O)n(-c3ccc(OC(F)F)cc3)c2n1

- IC50 [1]: 64 nM
- IC50 [2]: 484 nM
SMILES: COc1ncc2cc(-c3ccc4nc5n(c4c3)CCN(C)C5)c(=O)n(-c3ccc(OC(F)F)cc3)c2n1

- IC50 [1]: 394 nM
- IC50 [2]: 3110 nM
SMILES: CCOc1ncc2cc(-c3ccc4c(c3)nc3n4CCN(C)C3)c(=O)n(-c3ccc(OC(F)F)cc3)c2n1

- IC50 [1]: 26 nM
- IC50 [2]: 75 nM
- Tmax [7]: 0.67 h
- half-life [8]: 2.98 h
- Cmax [9]: 6730 ng/mL
- AUC [10]: 41200 ng·h/mL
- IC50 [12]: > 10000 nM
- MRT [13]: 4.71 h
- Papp A→B at 2.5 h, 2 µM [18]: 2.9 ×10⁻⁶ cm/s
- CLint [19]: 20.1 µL/min/mg
- efflux ratio at 2.5 h, 2 µM [20]: 8
- IC50 [21]: > 50000 nM
- IC50 [22]: 39200 nM
- IC50 [23]: 29000 nM
- IC50 [24]: > 50000 nM
- IC50 [25]: 36900 nM
- IC50 [26]: > 50000 nM
SMILES: CCOc1ccc2c(=O)n(-c3ccc4nc5n(c4c3)CCN(C)C5)c(=O)n(-c3ccc(OC(F)F)cc3)c2n1
- Activity [14]: Active
- Activity [15]: -52%
- Activity [16]: Non-Toxic
- Activity [17]: 12%
- IC50 [27]: > 50000 nM

- IC50 [1]: 51 nM
- IC50 [2]: 119 nM
SMILES: CCOc1ncc2cc(-c3ccc4nc5n(c4c3)CCN(C)C5)c(=O)n(-c3ccc(Cl)cc3)c2n1
